The structures appear in SMILES notation.

This experiment concerns the target alpha-L-fucosidase (Bos taurus). As to the kind of experiment: Compound was tested for inhibition of alpha-fucosidase from bovine kidney.

On to `O[C@H]1[C@H](O)[C@H](O)CN(Cc2ccccc2)C[C@H]1O` [1-Benzyl-azepane-3,4,5,6-tetraol], for which the Ki is 23.4 µM.

(Values after BindingDB's records for doi:10.1016/0960-894X(96)00183-7 (1996).)
